Measured values published in paper PMC12527173, “Cytotoxic, anti-inflammatory, antioxidant, and anti-glyoxalase-I evaluation of chelating substances: In silico and in vitro study” (PLOS One, 2025).
Where two headings read alike, the source gives them in different places. One block for each compound: values may come before it.

Assays:
[1] = target: T1, human recombinant Glo-I enzyme (rhGlo-I) (Homo sapiens, UniProt Q04760); assay: Glyoxalase-I (Glo-I) enzyme inhibition assay; type: biochemical; conditions: for activity against Glo-I (in words): in vitro, compounds classed as inactive
T1 construct: N-terminal Met and 6-His tag (N); purchased R&D Systems; host or cells: E. coli
T1 sequence (Q04760 2-184 limits assumed): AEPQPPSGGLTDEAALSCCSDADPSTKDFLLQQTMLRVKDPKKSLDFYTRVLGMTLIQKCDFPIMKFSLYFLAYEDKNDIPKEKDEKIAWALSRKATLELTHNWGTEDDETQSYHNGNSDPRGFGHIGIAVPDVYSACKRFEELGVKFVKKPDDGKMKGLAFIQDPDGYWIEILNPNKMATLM
Protocol: Solvents and chemicals were procured from Sigma-Aldrich Co. and Acros (ThermoFisher Scientific, New Jersey, USA). […] The enzyme was obtained from R&D Systems® Corporation in the USA. Synthetic compounds were tested for their inhibitory effects on the enzyme using a 10 mM DMSO stock concentration in triplicates. The manufacturer’s protocol from R & D Systems, Inc. in Minneapolis, MN, USA was followed for the in vitro experiments. The reconstituted Glo-I enzyme (0.5 mg/mL) was thawed after being stored at −70°C in sterile deionized water. […] The monitoring was done at a wavelength of 240 nm for 200 seconds at 37°C. The substrate mixture was freshly concocted with a concentration of 100 mM glutathione and 100 mM methylglyoxal (MG) in assay buffer containing 0.5 M sodium phosphate dibasic/monobasic. It was then left undisturbed at room temperature for 15 minutes […]. The selected compounds for investigation are subsequently produced in testing concentration ranges using a 0.1 M solution of sodium phosphate dibasic/monobasic with a pH range of 7–7.2. The blank contained an assay buffer with MG substrate. The test compounds were combined with human recombinant Glo-I (50 µM) in a 96-well plate to determine their kinetic behavior.

[2] = tested on: CACO2 colorectal cancer cell line; assay: SRB cytotoxicity assay, CACO2; type: cell-based; conditions: Homo sapiens, Caco-2, 72 h incubation, n = 12, read-out: Cytotoxicity (as of %Control) IC50 value CACO2
Protocol: (§1) The cancer cell lines were cultured in DMEM supplemented with 10% FBS (Bio Whittaker, Verviers, Belgium), HEPES Buffer (10 mM), gentamicin (50 µg/mL), L-glutamine (100 μg/mL), streptomycin ([…]), penicillin (100 µg/mL), and 4-(2-hydroxyethyl)-1-piperazineethanesulfonic acid (HEPES) Buffer (Sigma, St. Luis, MO, USA). The Sulforhodamine B used was obtained from Santa Cruz Biotechnology, Inc. in Texas, USA. […] Periodontal ligament fibroblasts (PDL) were utilized to assess specific cytotoxicity. Cancer cell lines that have survived offer several benefits. They provide a consistent and uninterrupted source of cells, so bypassing any ethical concerns related to the use of human tissue. Additionally, they are cost-effective. The cytotoxicity levels were assessed using the Sulforhodamine B (SRB) colorimetric assay, provided by Santa Cruz Biotechnology, Inc. in Texas, USA. The Spectro Scan 80D UV-VIS spectrophotometer, manufactured by Sedico Ltd. in Nicosia, Cyprus, was employed for this cytotoxicity screening. The cells were co-incubated with substances or a reference agent at various doses ranging from 5 to 200 μg/mL. […] The reduction in cell viability was analyzed by plotting Dose-response curves and expressing the data as a percentage of the control optical density. The IC50 values were obtained using regression analysis.

[3] = tested on: SW480 colorectal cancer cell line; assay: SRB cytotoxicity assay, SW480; type: cell-based; conditions: Homo sapiens, 72 h incubation, n = 12, read-out: Cytotoxicity (as of %Control) IC50 value SW480
Protocol: as §1

[4] = tested on: HCT116 colorectal cancer cell line; assay: SRB cytotoxicity assay, HCT116; type: cell-based; conditions: Homo sapiens, HCT-116, 72 h incubation, n = 12, read-out: Cytotoxicity (as of %Control) IC50 value HCT116
Protocol: as §1

[5] = tested on: SW620 colorectal cancer cell line; assay: SRB cytotoxicity assay, SW620; type: cell-based; conditions: Homo sapiens, SW-620, 72 h incubation, n = 12, read-out: Cytotoxicity (as of %Control) IC50 value SW620
Protocol: as §1

[6] = tested on: HT-29 colorectal cancer cell line; assay: SRB cytotoxicity assay, HT29; type: cell-based; conditions: Homo sapiens, 72 h incubation, n = 12, read-out: Cytotoxicity (as of %Control) IC50 value HT29
Protocol: as §1

[7] = tested on: PANC1 pancreatic cell line; assay: SRB cytotoxicity assay, PANC1; type: cell-based; conditions: Homo sapiens, PANC-1, 72 h incubation, n = 12, read-out: Cytotoxicity (as of %Control) IC50 value PANC1
Protocol: as §1

[8] = SRB cytotoxicity assay, normal PDL fibroblasts; type: cell-based; conditions: normal periodontal ligament (PDL) fibroblasts, 72 h incubation, 0.1–200 µM range, read-out: Cytotoxicity (as of %Control) IC50 value PDL fibroblasts
Protocol: as §1

[9] = tested on: A375 human skin cancer cell line; assay: SRB cytotoxicity assay, A375; type: cell-based; conditions: A-375, 72 h incubation, n = 12, read-out: Cytotoxicity (as of %Control) IC50 value A375 skin melanoma
Protocol: as §1

[10] = tested on: A549 lung cancer cell line; assay: SRB cytotoxicity assay, A549; type: cell-based; conditions: Homo sapiens, 72 h incubation, n = 12, read-out: Cytotoxicity (as of %Control) IC50 value A549 lung malignancy
Protocol: as §1

[11] = tested on: Human PC3 prostate cancer cell line; assay: SRB cytotoxicity assay, PC3; type: cell-based; conditions: 72 h incubation, n = 12, read-out: Cytotoxicity (as of %Control) IC50 value PC3 prostate malignancy
Protocol: as §1

[12] = tested on: Breast cancer cell line MCF7; assay: SRB cytotoxicity assay, MCF7; type: cell-based; conditions: Homo sapiens, 72 h incubation, n = 12, read-out: Cytotoxicity (as of %Control) IC50 value MCF7 mammary malignancy
Protocol: as §1

[13] = tested on: T47D breast cancer cell line; assay: SRB cytotoxicity assay, T47D; type: cell-based; conditions: Homo sapiens, 72 h incubation, n = 12, read-out: Cytotoxicity (as of %Control) IC50 value T47D mammary malignancy
Protocol: as §1

[14] = tested on: HeLa uterine cervix adenocarcinoma cell line; assay: SRB cytotoxicity assay, HeLa; type: cell-based; conditions: Homo sapiens, 72 h incubation, n = 12, read-out: Cytotoxicity (as of %Control) IC50 value Hela cervix malignancy
Protocol: as §1

[15] = tested on: LPS-primed RAW 264.7 murine macrophages (nitrite / iNOS); assay: Anti-inflammatory (nitrite) determination in LPS-primed macrophages; type: cell-based; conditions: Mus musculus, RAW264.7; LPS-primed RAW 264.7; nitrite by Griess; 24 h; n = 12; read-out: iNOS- IC50 value
Protocol: The RAW 264.7 mouse macrophage cell line (ATCC® TIB-71) was cultivated in high glucose DMEM with 10% foetal bovine serum (FBS), 100 U/mL penicillin, 100 μg/mL streptomycin, and 100 μg/mL L-glutamate. The cells were incubated at 37°C in a humidified environment with 95% air and 5% CO2. Confluent macrophages (2 x 10^5/well) were cultured with lipopolysaccharide (LPS; 20 μg/mL; Sigma, St. Luis, MO, USA) and indomethacin (25–200 μg/mL) as the positive control, along with various concentrations (5–200 μg/mL) of treatment compounds. The cells were incubated for 24 hours. 100 μL of Griess reagent were combined with 100 μL portions of cell culture medium and left to incubate at room temperature for 10 minutes. The absorbance at a wavelength of 550 nm was measured using a microplate reader, namely the Spectro Scan 80D UV-VIS spectrophotometer manufactured by Sedico Ltd. in Nicosia, Cyprus. The nitrite concentration was assessed by comparing it to a standard curve of sodium nitrite. A cytotoxicity protocol using SRB was conducted to assess the impact of the test substances under study on RAW 264.7 viability.

[16] = read-out: Trial one (%inhibtion)
[17] = read-out: Trial three (%inhibtion)
[18] = read-out: Trial two (%inhibtion)

Structure (SMILES): [O-][Cl+2]([O-])O [Chloric acid]
activity against Glo-I (in words) [1]: inactive

Structure (SMILES): CC(c1cc2ccccc2s1)N(O)C(N)=O (stereo not shown) [Zileuton, reference compound]
activity against Glo-I (in words) [1]: do not demonstrate efficacy against Glo-I

Structure (SMILES): COc1cccc2c1C(=O)c1c(O)c3c(c(O)c1C2=O)C[C@@](O)(C(=O)CO)C[C@@H]3O[C@H]1C[C@H](N)[C@H](O)[C@H](C)O1 [Doxorubicin, reference compound]
IC50 [2]: 920 ± 30 nM | IC50 [3]: 10 nM | IC50 [4]: 920 ± 30 nM | IC50 [5]: 650 ± 30 nM | IC50 [6]: 6 nM | IC50 [7]: 7170 ± 1070 nM | IC50 at 72 h [8]: > 200000 nM | IC50 [9]: 280 ± 140 nM | IC50 [10]: 280 nM | IC50 [11]: 130 ± 10 nM | IC50 [12]: 4810 ± 210 nM | IC50 [13]: 20 nM | IC50 [14]: 5560 ± 80 nM

Structure (SMILES): Cc1c(O)c(=O)ccn1C [3-Hydroxy-1,2-dimethyl-4(1h)-pyridone]
activity against Glo-I (in words) [1]: inactive

Structure (SMILES): CC(=O)Nc1nnc(S(N)(=O)=O)s1 [acetazolamide, reference compound]
activity against Glo-I (in words) [1]: did not exhibit any action against Glo-I

Structure (SMILES): CCN(CC)C(=O)/C(C#N)=C/c1cc(O)c(O)c([N+](=O)[O-])c1 [Entacapone, reference compound]
activity against Glo-I (in words) [1]: loss of activity

Structure (SMILES): O=C(CCCCCCC(=O)Nc1ccccc1)NO [SAHA, reference compound]
activity against Glo-I (in words) [1]: do not demonstrate efficacy against Glo-I

Structure (SMILES): CC(=NO)C(C)=NO [Dimethylglyoxime]
activity against Glo-I (in words) [1]: inactive

Structure (SMILES): Oc1cc(O)c2c(c1)O[C@H](c1cc(O)c(O)c(O)c1)[C@@H](O)C2 [Gallocatechin]
activity against Glo-I (in words) [1]: inactive

The next lines start with results.

activity against Glo-I (in words) [1]: inactive
Structure (SMILES): O=C(/C=C/c1ccc(O)c(O)c1)O[C@@H]1[C@H](O)C[C@@](O)(C(=O)O)C[C@H]1OC(=O)/C=C/c1ccc(O)c(O)c1 [3,4-diaffeoylquinic acid]

activity against Glo-I (in words) [1]: inactive
Structure (SMILES): Oc1cc(O)c2c(c1)O[C@H](c1ccc(O)c(O)c1)[C@@H](O)C2 [(+)Catechin]

IC50 [15]: 20 nM
Structure (SMILES): COc1ccc2c(c1)c(CC(=O)O)c(C)n2C(=O)c1ccc(Cl)cc1 [Indomethacin]

activity against Glo-I (in words) [1]: inactive
Structure (SMILES): Oc1cc(O)c2c(c1)O[C@H](c1ccc(O)c(O)c1)[C@H](O)C2 [(-)Epicatechin]

activity against Glo-I (in words) [1]: inactive
Structure (SMILES): O=c1cccccc1O [Tropolon]

activity against Glo-I (in words) [1]: ineffective
Structure (SMILES): NC(CO)C(=O)NNCc1ccc(O)c(O)c1O (stereo not shown) [Benserazide, reference compound]

inhibition at 3.125 µM [1, 16]: 15.4% | inhibition at 3.125 µM [1, 17]: 6.7% | inhibition at 3.125 µM [1, 18]: 7.9% | inhibition at 6.25 µM [1, 16]: 14.4% | inhibition at 6.25 µM [1, 17]: 9.01% | inhibition at 6.25 µM [1, 18]: 9.06% | inhibition at 12.5 µM [1, 16]: 25.3% | inhibition at 12.5 µM [1, 17]: 20.9% | inhibition at 12.5 µM [1, 18]: 12% | inhibition at 25 µM [1, 16]: 35.3% | inhibition at 25 µM [1, 17]: 29.6% | inhibition at 25 µM [1, 18]: 27.5% | inhibition at 50 µM [1, 16]: 55.6% | inhibition at 50 µM [1, 17]: 56% | inhibition at 50 µM [1, 18]: 53.5% | Maximum (descriptive statistics of enzyme inhibition) ([1]; highest mean inhibition over the tested concentrations, in % (unit assumed)): 55.00 | IC50 ([1]; human recombinant Glo-I, triplicates, read-out: IC50 µM ± SD): 44.3 ± 18.6 µM | Minimum (descriptive statistics of enzyme inhibition) ([1]; lowest mean inhibition over the tested concentrations, in % (unit assumed)): 10.00
Structure (SMILES): O=C(/C=C/c1ccc(O)c(O)c1)O[C@H]1[C@H](O)[C@@H](O)[C@H](OCCc2ccc(O)c(O)c2)O[C@@H]1CO [Calceolarioside A]
IC50 at 72 h [8]: > 200000 nM | IC50 [12]: 899000 ± 179000 nM | IC50 [13]: 45600 ± 3460 nM | IC50 [14]: 208000 ± 34800 nM

activity against Glo-I (in words) [1]: ineffective
Structure (SMILES): Oc1ccc(CC2NCCc3cc(O)c(O)cc32)cc1 (stereo not shown) [Higenamine]

activity against Glo-I (in words) [1]: inactive
Structure (SMILES): O=C(/C=C/c1ccc(O)c(O)c1)O[C@@H]1C[C@@](OC(=O)/C=C/c2ccc(O)c(O)c2)(C(=O)O)C[C@@H](O)[C@@H]1O [cynarine]

activity against Glo-I (in words) [1]: inactive
Structure (SMILES): COc1ccc(C[C@@H](C)[C@@H](C)Cc2ccc(OC)c(OC)c2)cc1OC [Terameprocol]
